Values after ≈ are worked out from the molar mass of the structure shown. Where a SMILES comes first, the peptide text is derived from it. Bridges are numbered along the chain shown (N, C = ends).
Columns and labels:
E. coli (Ec, ATCC 25922) = assay: microbe, parasite or virus in culture; format: cell-based, Escherichia coli
Description: (§1) All cyclic and linear peptides were screened for antibacterial activity against four Gram-positive strains: B. subtilis (Bs, ATCC 23857), C. glutamicum (Cg, ATCC 13032), S. aureus (Sa, ATCC 9144) and S. epidermidis RP62A (Se, ATCC 35984), and two Gram-negative strains: E. coli (Ec, ATCC 25922) and P. aeruginosa (Pa, ATCC 27853). The activity was assessed using a broth microdilution assay according to a modified CLSI-based method. Briefly, overnight bacterial cultures were grown in Mueller–Hinton (MH) broth medium (Difco Laboratories, Detroit, MI, USA) for 2 h at room temperature. The optical density (OD600) was measured, and the bacterial suspensions were adjusted to 2.5–3 × 10^4 CFU/mL in MH medium. The bacterial suspension (50 µL) was distributed in 96-well plates (Nunc, Roskilde, Denmark) preloaded with two-fold dilution series (256 to 1 µg/mL) of peptide solutions (50 µL), giving a final well volume of 100 µL. The microplates were incubated in an EnVision 2103 microplate reader (PerkinElmer, Llantrisant, UK) at 35 °C, with OD595 recorded every hour for 24 h. MIC was defined as the lowest concentration of peptides showing an optical density less than 10% of the negative (growth) control, consisting of bacterial suspension and water. Polymyxin B sulfate (Sigma-Aldrich, St. Louis, MO, USA) and chlorhexidine acetate (CHX, Fresenius Kabi, Halden, Norway), both with concentrations ranging from 12.5 to 0.09 μg/mL, served as positive (growth inhibition) controls. All peptides were tested in triplicate.

[1] = test system: E. coli MC4100 (wild type, WT); assay: microbe, parasite or virus in culture
Description: as §1
(§2) MIC values were determined for all cyclic peptides against two E. coli strains: wild type (WT) MC4100 and the hyperpermeable variant NR698, having a deficient outer membrane. The NR698 strain, containing lptD4213/imp4213 mutation, was kindly provided by M. Grabowicz (Emory University School of Medicine, Rollins Research Center, Atlanta, GA, USA). The assay was performed in the same way as previously described for the antibacterial MIC assay.

[2] = test system: E. coli NR698 (outer membrane permeable mutant, imp4213); assay: microbe, parasite or virus in culture; conditions: for MIC E. coli NR698 (mutant): MC4100 NR698 imp4213, deficient outer membrane
Description: as §1, §2

[3] = test system: B. subtilis (Bs, ATCC 23857); assay: microbe, parasite or virus in culture; format: cell-based, Bacillus subtilis
Description: as §1

[4] = test system: C. glutamicum (Cg, ATCC 13032); assay: microbe, parasite or virus in culture; format: cell-based, Corynebacterium glutamicum
Description: as §1

[5] = test system: S. aureus (Sa, ATCC 9144); assay: microbe, parasite or virus in culture; format: cell-based, Staphylococcus aureus
Description: as §1

[6] = test system: S. epidermidis RP62A (Se, ATCC 35984); assay: microbe, parasite or virus in culture; format: cell-based, Staphylococcus epidermidis
Description: as §1

[7] = test system: P. aeruginosa (Pa, ATCC 27853); assay: microbe, parasite or virus in culture; format: cell-based, Pseudomonas aeruginosa
Description: as §1

all bacterial strains = assay: Antibacterial MIC assay, all bacterial strains together (range or geometric mean); format: cell-based
Description: The selectivity index (SI) of the peptides towards bacteria over eukaryotic cells was calculated using the geometric mean (GM) of the MIC values against all bacterial test strains, according to the method by Orlov et al.. The SI for each peptide was determined as the ratio of the RBC-EC50 value by the corresponding GM value. Larger SI values indicate greater selectivity for microbial cells. […] In general, the SI was higher against the Gram-positive bacteral strains than the Gram-negative strains. (Table S3). Overall, peptides displaying EC50 < 100 µg/mL were considered too haemolytic to be of interest for further exploration.
as §1

A. pullulans (Ap) = assay: microbe, parasite or virus in culture; format: cell-based, Aurobasidium pollulans; conditions: 48 h
Description: (§3) The synthesized peptides were screened for antifungal activity against the molds A. pullulans (Ap) and Rhodotorula sp. (Rh) (both obtained from Professor Arne Tronsmo, The Norwegian University of Life Sciences, Ås, Norway) and the yeast C. albicans (Ca, ATCC 10231) as previously described. In short, fungal spores were grown in potato dextrose broth media (Difco) containing 2% D(+)-glucose (Merck, Darmstadt, Germany) at 25–30 °C while shaking at 200 rpm overnight. The cultures were diluted with a dextrose media containing glucose to a concentration of approx. 4 × 10^5 spores/mL. Aliquots of the cultures (50 µL) were transferred to 96 well microtiter plates preloaded with the synthetic peptides (50 µL) in two-fold serial dilutions (256 to 1 µg/mL). Polymyxin B and CHX (both with concentrations ranging from 12.5 to 0.09 μg/mL) served as positive antibiotic controls. The microtiter plates containing the fungal spores and the test peptides were incubated at room temperature for 48 h and OD600 was recorded using a Synergy H1 Hybrid microplate reader system (BioTek, Winooski, VT, USA). MIC was defined as the lowest peptide concentration showing an optical density less than 10% of the negative (growth) control. All experiments were performed in triplicate.

[8] = test system: C. albicans (Ca, ATCC 10231); assay: microbe, parasite or virus in culture; format: cell-based, Candida albicans
Description: as §3

Rhodotorula sp. (Rh) = assay: microbe, parasite or virus in culture; format: cell-based; conditions: 48 h
Description: as §3

[9] = test system: Gram-positive bacterial strains; conditions: Table S3; MIC >256 set to 256
Description: as §1

[10] = test system: Gram-negative bacterial strains (E. coli and P. aeruginosa); assay: Antibacterial MIC assay, Gram-negative strains together (range or geometric mean); format: cell-based; conditions: Table S3; MIC >256 set to 256
Description: as §1

[11] = test system: fungi (A. pullulans, C. albicans, Rhodotorula sp.); assay: Antifungal MIC assay, all fungi together (range or geometric mean); format: cell-based; conditions: Table S3; MIC >128 set to 128
Description: as §3

## CN[C@H](CC(C)C)C(=O)N[C@H]1C(=O)N[C@@H](CC(N)=O)C(=O)N[C@H]2C(=O)N[C@H]3C(=O)N[C@H](C(=O)N[C@H](C(=O)O)c4cc(O)cc(O)c4-c4cc3ccc4O)[C@H](O)c3ccc(c(Cl)c3)Oc3cc2cc(c3O[C@@H]2O[C@H](CO)[C@@H](O)[C@H](O)[C@H]2O[C@H]2C[C@](C)(N)[C@H](O)[C@H](C)O2)Oc2ccc(cc2Cl)[C@H]1O [Vancomycin, reference compound]
E. coli (Ec, ATCC 25922); Escherichia coli, ATCC25922, read-out: MIC E. coli ATCC 25922 (from Table 1)
  MIC: 125 µg/mL (≈ 86.3 µM)
[1]; Escherichia coli, read-out: MIC E. coli MC4100 (WT)
  MIC: 64 µg/mL (≈ 44.2 µM)
[2]; Escherichia coli, read-out: MIC E. coli NR698 (mutant)
  MIC: 0.3 µg/mL (≈ 0.207 µM)

## CC(C)C[C@H](NC(=O)[C@H](CCCCN)NC(=O)[C@@H]1CSSC[C@H](N)C(=O)NCC(=O)N[C@@H](CCCCN)C(=O)N[C@@H](CCCCN)C(=O)N2CCC[C@H]2C(=O)NCC(=O)NCC(=O)N[C@@H](Cc2c[nH]c3ccccc23)C(=O)N[C@@H](CCCCN)C(=O)N1)C(N)=O [cTurg-1] (H-CGKKPGGWKCKL-NH2; disulfide 1-10; N-terminus assumed)
[3]; ATCC 23857, 24 h
  Antimicrobial Activity (MIC) Gram + Bs: 256 µg/mL
[4]; ATCC 13032, 24 h
  Antimicrobial Activity (MIC) Gram + Cg: 16 µg/mL
[5]; ATCC 9144, 24 h
  Antimicrobial Activity (MIC) Gram + Sa: >256 µg/mL
[6]; ATCC 35984, 24 h
  Antimicrobial Activity (MIC) Gram + Se: >256 µg/mL
E. coli (Ec, ATCC 25922); ATCC 25922, 24 h
  Antimicrobial Activity (MIC) Gram − Ec: >256 µg/mL
[7]; ATCC 27853, 24 h
  Antimicrobial Activity (MIC) Gram − Pa: >256 µg/mL
All bacterial strains; Table 1, six bacterial strains
  GM (geometric mean of the MIC values against all bacterial strains): 161 µg/mL
All bacterial strains; Table S3, all bacterial test strains, MIC >256 set to 256
  GM of MIC Tot. bact.: 161 µg/mL
All bacterial strains; span over the strains
  MIC against all bacterial strains: ≥ 256 µg/mL
A. pullulans (Ap)
  Antimicrobial Activity (MIC) Fungi Ap: 32 µg/mL
[8]; ATCC 10231, 48 h
  Antimicrobial Activity (MIC) Fungi Ca: 128 µg/mL
Rhodotorula sp. (Rh)
  Antimicrobial Activity (MIC) Fungi Rh: 64 µg/mL
[2]
  MIC E. coli NR698 (mutant): 64 µg/mL (≈ 49.2 µM)
[9]
  GM of MIC G+: 128 µg/mL
[10]
  GM of MIC G-: 256 µg/mL
[11]
  GM of MIC Fungi: 64 µg/mL

## Polymyxin B [reference compound]
[3]; B. subtilis ATCC 23857, 24 h
  Antimicrobial Activity (MIC) Gram + Bs: 3.1 µg/mL
[4]; C. glutamicum ATCC 13032, 24 h
  Antimicrobial Activity (MIC) Gram + Cg: 3.1 µg/mL
[5]; S. aureus ATCC 9144, 24 h
  Antimicrobial Activity (MIC) Gram + Sa: 12.5 µg/mL
[6]; S. epidermidis RP62A ATCC 35984, 24 h
  Antimicrobial Activity (MIC) Gram + Se: 6.3 µg/mL
E. coli (Ec, ATCC 25922); E. coli ATCC 25922, 24 h
  Antimicrobial Activity (MIC) Gram − Ec: 3.1 µg/mL
E. coli (Ec, ATCC 25922); Table 2, laboratory strain
  MIC E. coli ATCC 25922 (from Table 1): 3.1 µg/mL
[7]; P. aeruginosa ATCC 27853, 24 h
  Antimicrobial Activity (MIC) Gram − Pa: 3.1 µg/mL
A. pullulans (Ap); A. pullulans
  Antimicrobial Activity (MIC) Fungi Ap: 3.1 µg/mL
[8]; C. albicans ATCC 10231, 48 h
  Antimicrobial Activity (MIC) Fungi Ca: 12.5 µg/mL
Rhodotorula sp. (Rh); Rhodotorula sp.
  Antimicrobial Activity (MIC) Fungi Rh: 3.1 µg/mL
[1]; wild type
  MIC E. coli MC4100 (WT): 0.8 µg/mL
[2]
  MIC E. coli NR698 (mutant): 0.2 µg/mL
